# Measured values: patent publication US6242443A, “1,2,4-benzothiadiazine derivatives, their preparation and use” (Novo Nordisk AIS, priority 1996, dated 2001)
# Test system: RIN 5F cells
# Experiment: 86Rb+ efflux from a β-cell line (increased Rb-efflux in RIN 5F cells)
# Type: cell-based
# Conditions: 1 h at room temperature, pH 7.1
# Description: ^86 Rb^+ efflux from a β-cell line
# The RIN 5F cell line was grown in RPMI 1640 with Glutamax I, supplemented with 10% fetal calf serum (from GibcoBRL, Scotland, UK) and maintained in an atmosphere of 5% CO2 /95% air at 37° C. The cells were detached with a Trypsin-EDTA solution (from GibcoBRL, Scotland, UK), resuspended in medium, added 1 mCi/ml ^86 Rb^+ and replated into microtiter plates (96 well cluster 3596, sterile, from Costar Corporation,MA, USA) at a density of 50000 cells/well in 100 μl/well, and grown 24 hours before use in assay.
# The plates were washed 4 times with Ringer buffer (150 mM NaCl, 10 mM Hepes, 3.0 mM KCl, 1.0 mM CaCl2, 20 mM Sucrose, pH 7.1). Eighty μl Ringer buffer and 1 μl control- or test compound dissolved in DMSO was added. After incubation 1 h at room temperature with a lid, 50 μl of the supernatant was transferred to PicoPlates (Packard Instrument Company, CT, USA) and 100 μl MicroScint40 (Packard Instrument Company, CT, USA) added. The plates were counted in TopCount (Packard Instrument Company, CT, USA) for 1 min/well at the ^32 P program.
# The calculation of EC50 and Emax was done by SlideWrite (Advanced Graphics Software, Inc., CA, USA) using a four parameter logistic curve: y=(a-d)/(1+(x/c)^b)+d, where a=the activity estimated at concentration zero, b=a slope factor, c=the concentration at the middle of the curve and, d=the activity estimated at infinite concentration. EC50 =c and Emax =d, when the curve is turned of at infinite concentrations.
row,EC50 [µM],SMILES
1,12.9,"CC(C)C(C)NC1=NS(=O)(=O)c2cc(Cl)c(Cl)cc2N1 (stereo not shown) [Example 26, 6,7-Dichloro-3-(1,2-dimethylpropyl)amino-4H-1,2,4-benzothiadiazine 1,1-dioxide]"
2,9.4,"O=S1(=O)N=C(NCC2CCCCC2)Nc2ccc(Cl)cc21 [Example 66, 7-Chloro-3-(cyclohexylmethyl)amino-4H-1,2,4-benzothiadiazine 1,1-dioxide]"
3,13,"O=S1(=O)N=C(NCc2ccccc2)Nc2ccc(I)cc21 [Example 86, 3-Benzylamino-7-iodo-4H-1,2,4-benzothiadiazine 1,1-dioxide]"

# Test system: rat aorta rings
# Experiment: Relaxation of rat aorta rings (phenylephrine-contracted)
# Type: cell-based
# Conditions: rat thoracic aorta rings contracted with phenylephrine to 80% of maximum response, cumulative addition; read-out: EC50 (concentration required to evoke a 50% relaxation of the tissue)
# Description: The activity of the compounds as potassium channel openers can also be measured as relaxation of rat aortas rings according to the following procedure:
# A section of rat thoracic aorta between the aortic arch and the diaphragm was dissected out and mounted as ring preparations as described by Taylor P. D. et al, Brit J. Pharmacol, 111, 42-48 (1994).
# After a 45 min. equilibration period under a tension of 2 g, the preparations were contracted to achieve 80% of the maximum response using the required concentration of phenylephrine. When the phenylephrine response reached a plateau, potential vasodilatory agents were added cumulatively to the bath in small volumes using half log molar increments at 2 min intervals. Relaxation was expressed at the percentage of the contracted tension. The potency of a compound was expressed as the concentration required to evoke a 50% relaxation of the tissue.
row,EC50 [µM],SMILES
1,5.2,"CC(C)NC1=NS(=O)(=O)c2ccc(C(F)(F)F)cc2N1 [Example 50, 3-Isopropylamino-6-trifluoromethyl-4H-1,2,4-benzothiadiazine 1,1-dioxide]"
2,32.7,"C[C@H](NC1=NS(=O)(=O)c2cc(I)ccc2N1)c1ccccc1 [Example 88, 7-Iodo-3-(S)-(1-phenylethyl)amino-4H-1,2,4-benzothiadiazine 1,1-dioxide]"
3,4.8,"CCNC1=NS(=O)(=O)c2cc(Br)ccc2N1 [Example 94, 7-Bromo-3-ethylamino-4H-1,2,4-benzothiadiazine 1,1-dioxide]"
4,14.1,"CCNC1=NS(=O)(=O)c2cc(F)ccc2N1 [Example 101, 3-Ethylamino-7-fluoro-4H-1,2,4-benzothiadiazine 1,1-dioxide]"
